For the assay, the target named is T1, CCK-1 receptor (Homo sapiens, UniProt P32238).
T1 construct: expressed in transfected cells; membranes
T1 sequence (P32238 1-428): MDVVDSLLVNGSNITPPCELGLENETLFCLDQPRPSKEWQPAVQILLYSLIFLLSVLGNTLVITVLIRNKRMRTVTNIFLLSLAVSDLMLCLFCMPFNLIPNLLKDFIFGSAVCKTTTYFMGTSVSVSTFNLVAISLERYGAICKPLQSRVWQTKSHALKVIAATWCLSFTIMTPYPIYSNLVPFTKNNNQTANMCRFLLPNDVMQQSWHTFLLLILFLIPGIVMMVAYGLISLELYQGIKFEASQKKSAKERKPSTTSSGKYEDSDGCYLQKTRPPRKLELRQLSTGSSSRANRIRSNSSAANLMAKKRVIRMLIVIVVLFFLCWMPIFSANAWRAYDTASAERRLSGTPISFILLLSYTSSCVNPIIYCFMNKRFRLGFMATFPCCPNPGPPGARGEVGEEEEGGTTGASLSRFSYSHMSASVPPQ
The experiment in a line: CCK-1 receptor radioligand binding assay ([125I]-BH-CCK-8S displacement, membranes of stably transfected CHO-K1 cells). The conditions noted are these: membranes of CHO-K1 cells stably transfected with CCK-1 receptor, 0.3 μM PD-134,308 present. The method, then:
CHO-K1 cells that had undergone-stable transfection with the CCK-1 receptor were grown in DMEM supplemented with L-glutamine (2 mM), penicillin (50 units/mL) and streptomycin (50 μg/mL). Cells were cultured under continuous G418 selection (2 mM) and were harvested using a rubber cell scraper. CHO-K1 cells were sub-cultured a maximum of ten times before being reseeded from the original stocks.
Membranes were prepared from the stably transfected CHO-K1 cells. Frozen cell pellets (−40° C.) were thawed in 14 mL of buffer A (10 mM HEPES, 130 mM NaCl, 4.7 mM KCl, 5 mM MgCl, 1 mM EGTA and 15.4 mg/100 mL bacitracin at pH 7.2), adapted from Harper et al. (Br. J. Pharmacol. (1996) 118, pp 1717-1726). The thawed pellets were homogenized using a Polytron PT-10 (7×1 s). The homogenates were centrifuged for 5 min at 1500 rpm (600×g), and the resulting pellets were discarded. The supernatants were re-centrifuged in order to collect the receptor-membrane pellets (25 min 15,000 rpm; 39,800×g), which were re-suspended in buffer A.
All assays were conducted in 96-well plates (GF/B millipore filter plates) using buffer A, with 0.3 μM PD-134,308, for the dilutions. The CCK-2 receptor ligand was included to eliminate the contribution of this receptor subtype to the binding. For the optimal cell number determination experiments 20 pM [1251]-BH—CCK-8S (50 μL 60 pM solution) was incubated with a range of cell concentrations (2.5×105 to 12.5×10^5 cells/well) in a total volume of 150 μL. Total binding of [1251]-BH—CCK-8S was determined in the presence of 15 μL of buffer A. Non-specific binding of [1 251]-BH—CCK-8S was determined in the presence of 15 μL of 100 μM 2-naphthalenesulphonyl L-aspartyl-(2-phenethyl)amide (2-NAP: see R. A. Hull et al., Br. J. Pharmacol. (1993) 108, pp 734-740), a CCK-1 receptor selective antagonist that is structurally unrelated to the radioligand [1251]-BH—CCK-8S. The assay preparation was incubated for 1 h at 21±3° C., and then the assay was terminated upon rapid filtration of the preparation under reduced pressure. The loaded filters were washed three times using undiluted PBS (100 μL), and then the residues were transferred to 5 mL scintillation tubes. Bound radioactivity was determined using a gamma counter (count time=1 min). From these experiments a cell concentration of 1 pellet in 40 mL of buffer (2.5×10^6 cells/mL) was chosen for use in other assays (below). To validate the radioligand concentration and incubation time for the assay, saturation and kinetic binding studies were also conducted (see M. F. Morton, The Pharmacological Characterization of Cholecystokinin Receptors in the Human Gastrointestinal Tract. PhD Thesis, University of London, 2000). The affinity of novel compounds was estimated by incubating membrane preparations with 15 μL of competing ligand (0.1 pM-1 mM) for 60 min at 21±3° C. The assay was then terminated according to the procedure outlined above.
The pKi values were determined using the equation of Cheng and Prusoff (Biochem. Pharmacol. (1973) 22, pp 3099-3108): [formula]
To circumvent problems associated with computer-assisted data analysis of compounds with low affinity, the data obtained in the current study were weighted according to a method described by Morton (2000). In brief, 100% and 0% specific binding were defined independently using total binding and binding obtained in the presence of a high concentration of the reference antagonist, 2-NAP.
With `O=C(O)/C(=C\c1cc(-c2ccc(Cl)c(Cl)c2)n(-c2ccccn2)n1)c1cccc(Cl)c1` [Example 110], the Ki was 12.6 nM.
The figure for `Cc1ccc(-c2cc(CC(C(=O)O)c3cccc4ccccc34)nn2Cc2ccccc2)cc1` (stereo not drawn) [Example 195] is 10 nM.
The figure for `O=C(O)/C(=C\c1cc(-c2ccc(Cl)c(Cl)c2)n(-c2cc(Cl)ccc2Cl)n1)c1cccc(Cl)c1` [Example 111] is 3.98 nM; for `Cc1cccc(C(Cc2cc(-c3ccc4ccccc4c3)nn2Cc2ccccc2)C(=O)O)c1` (stereo not drawn) [Example 83] it is 63.1 nM.
The figure for `Cc1ccc(-c2cc(CC(C(=O)O)c3ccc4c(c3)OCO4)nn2-c2ccc(Cl)c(Cl)c2)cc1` (stereo not drawn) [Example 189] is 39.8 nM.
Take `COc1ccc(-n2nc(CC(C(=O)O)c3cccc(Cl)c3)cc2-c2ccc(C)cc2)cc1` (stereo not drawn) [Example 7]: affinity was put at a Ki of 7.94 nM.
Next, `COc1ccc(-n2nc(CC(C(=O)N(C)C)c3cccc(C)c3)cc2-c2ccc(C)cc2)cc1` (stereo not drawn) [Example 66]: 20 nM; `Cc1cccc(C(Cc2cc(-c3ccc4ccccc4c3)n(-c3ccccn3)n2)C(=O)O)c1` (stereo not drawn) [Example 52]: 10 nM.
Next, `Cc1ccc(-c2cc(CC(C(=O)O)c3cccc(C)c3)nn2-c2ccc(C)cc2)cc1` (stereo not drawn) [Example 40]: 7.94 nM.
The figure for `COc1ccc(-n2nc(/C=C(\C(=O)O)c3cccc(Cl)c3)cc2-c2ccc(Cl)c(Cl)c2)cc1` [Example 115] is 6.31 nM; for `COc1ccc(-n2nc(CC(C(=O)O)c3cccc4ccccc34)cc2-c2ccc(Cl)c(Cl)c2)cc1` (stereo not drawn) [Example 210] it is 12.6 nM; for `COc1ccc(-n2nc(C[C@@H](C(=O)O)c3cccc4ccccc34)cc2-c2ccc(C)cc2)cc1` [Example 151] it is 200 nM.
With `COc1ccc(-n2nc(C[C@H](c3cccc(C)c3)c3nnn[nH]3)cc2-c2ccc(Cl)c(Cl)c2)cc1` [Example 131], the affinity corresponds to a Ki of 126 nM.
The figure for `Cc1cccc(C(Cc2cc(-c3ccc4ccccc4c3)nn2Cc2ccncc2)C(=O)O)c1` (stereo not drawn) [Example 88] is 39.8 nM; for `Cc1ccc(-n2nc(-c3cccc(N(C)C)c3)cc2CC(C(=O)O)c2cccc(C)c2)cc1` (stereo not drawn) [Example 90] it is 794 nM.
Next, `Cc1cccc([C@H](Cc2cc(-c3ccc(Cl)c(Cl)c3)n(-c3ccc(O)cc3)n2)C(=O)O)c1` [Example 328]: 20 nM; `Cc1cccc(C(Cc2cc(-c3ccc(Cl)c(Cl)c3)n(-c3ccc(C(C)(C)C)cc3)n2)C(=O)O)c1` (stereo not drawn) [Example 275]: 20 nM; `Cc1ccc(-n2nc(CC(C(=O)O)c3cccc(C)c3)cc2-c2ccc3c(c2)CCN3C)cc1` (stereo not drawn) [Example 87]: 25.1 nM.
In turn, `Cc1ccc(-c2cc(CC(C(=O)O)c3cccc(C)c3)nn2-c2ccc(Cl)cc2)cc1` (stereo not drawn) [Example 155] gave a Ki of 10 nM.
The figure for `COc1cccc2cc(-c3cc(CC(C(=O)O)c4cccc(C)c4)nn3-c3ccc(C)cc3)oc12` (stereo not drawn) [Example 311] is 20 nM; for `COc1ccc(-n2nc(CC(C(=O)N3CCN(C)CC3)c3cccc(C)c3)cc2-c2ccc(C)cc2)cc1` (stereo not drawn) [Example 68] it is 251 nM.
In turn, `Cc1ccc(-n2nc(CC(C(=O)O)c3cccc(C)c3)cc2-c2ccc(N3CCCC3)cc2)cc1` (stereo not drawn) [Example 352] showed a Ki of 31.6 nM.
The figure for `Cc1ccc(-c2cc(CC(C(=O)O)c3cccc(Cl)c3)nn2-c2ccc(C)cc2)cc1` (stereo not drawn) [Example 168] is 7.94 nM; for `Cc1ccc(-c2cc(CC(C(=O)O)c3cccc(Cl)c3)nn2-c2ccc(Cl)c(Cl)c2)cc1` (stereo not drawn) [Example 182] it is 12.6 nM; for `COc1ccc(-n2nc(C[C@H](C(=O)O)c3cccc(C)c3)cc2-c2ccc(Cl)c(Cl)c2)cc1` [Example 1] it is 10 nM.
Next, `Cc1cccc(C(Cc2cc(-c3ccc4c(c3)OCO4)nn2CC2CCCCC2)C(=O)O)c1` (stereo not drawn) [Example 82]: 1260 nM; `Cc1ccc(-n2nc(CC(C(=O)O)c3cccc(C)c3)cc2-c2ccc3ncccc3c2)cc1` (stereo not drawn) [Example 106]: 63.1 nM; `Cc1ccc(-n2nc(CC(C(=O)O)c3cccc(C)c3)cc2-c2ccc(N(C)C(C)C)cc2)cc1` (stereo not drawn) [Example 101]: 15.8 nM.
`COc1ccc(-n2nc(CC(C(=O)O)c3cccc(SC(F)(F)F)c3)cc2-c2ccc(Cl)c(Cl)c2)cc1` (stereo not drawn) [Example 334] showed an inhibition constant Ki of 100 nM.
Next, `COc1ccc(-n2nc(CC(C(=O)O)c3coc4ccccc34)cc2-c2ccc(Cl)c(Cl)c2)cc1` (stereo not drawn) [Example 261]: 12.6 nM.
Regarding `Cc1ccc(-n2nc(CC(C(=O)O)c3cccc(C)c3)cc2-c2ccc(N(C)C)cc2)cc1` (stereo not drawn) [Example 59], the Ki was 3.16 nM.
Next, `Cc1ccc(-n2nc(CC(C(=O)O)c3cccc(C)c3)cc2-c2ccc(N(C)C)cc2)cc1` (stereo not drawn) [Example 86]: 3.98 nM.
The figure for `COc1cccc(C(Cc2cc(-c3ccc(C)cc3)n(-c3ccc(Cl)c(Cl)c3)n2)C(=O)O)c1` (stereo not drawn) [Example 42] is 6.31 nM; for `COc1ccc(-n2nc(/C=C(/C(=O)O)c3ccc(C)cc3)cc2-c2ccc(Cl)c(Cl)c2)cc1` [Example 363] it is 794 nM; for `Cc1ccc(-c2cc(CC(C(=O)O)c3cccc4ccccc34)nn2-c2ccc(C)cc2)cc1` (stereo not drawn) [Example 167] it is 12.6 nM.
For the molecule `COc1cccc(C(Cc2cc(-c3ccc(C)cc3)n(-c3ccc(C(F)(F)F)cc3)n2)C(=O)O)c1` (stereo not drawn) [Example 177], the Ki was 12.6 nM.
Take `COc1ccc(-n2nc(CC(C(=O)NC3CCCCC3O)c3cccc(C)c3)cc2-c2ccc(C)cc2)cc1` (stereo not drawn) [Example 64]: the Ki was 50.1 nM.
Next, `COc1ccc(-n2nc(CC(C(=O)O)c3cccc(OC)c3)cc2-c2ccc(Cl)c(Cl)c2)cc1` (stereo not drawn) [Example 211]: 12.6 nM; `COc1ccc(-n2nc(CC(C(=O)O)c3c[nH]c4ccccc34)cc2-c2ccc(C)cc2)cc1` (stereo not drawn) [Example 71]: 25.1 nM.
In turn, `Cc1ccc(-c2cc(CC(C[S+]([O-])c3ncn[nH]3)c3cccc(C)c3)nn2-c2ccc(C)cc2)cc1` (stereo not drawn) [Example 136] showed a Ki of 6.31 nM.
Turning to `Cc1cccc(C(Cc2cc(-c3ccc(Cl)c(Cl)c3)nn2C)C(=O)O)c1` (stereo not drawn) [Example 48], affinity was put at a Ki of 79.4 nM.
The molecule `COc1ccc(-n2nc(C[C@@H](C(=O)O)c3cccc4ccccc34)cc2-c2ccc3c(c2)OCO3)cc1` [Example 28] showed a Ki of 1260 nM.
The figure for `COc1ccc(-c2cc(C[C@@H](C(=O)O)c3cccc(OC)c3)nn2-c2ccc(OC)cc2)cc1` [Example 31] is 1000 nM.
`Cc1ccc(-c2cc(CC(CSc3ncn[nH]3)c3cccc(C)c3)nn2-c2ccc(C)cc2)cc1` (stereo not drawn) [Example 335]: the Ki is 31.6 nM.
Next, `COc1cccc(C(Cc2cc(-c3ccc(C)cc3)n(-c3ccc(C)cc3)n2)C(=O)O)c1` (stereo not drawn) [Example 170]: 7.94 nM; `COc1ccc(-n2nc(CC(c3cccc(C)c3)c3nnn[nH]3)cc2-c2ccc(C)cc2)cc1` (stereo not drawn) [Example 74]: 6.31 nM.
In the case of `COc1ccc(-n2nc(CC(C(N)=O)c3cccc(C)c3)cc2-c2ccc(C)cc2)cc1` (stereo not drawn) [Example 65], the Ki is 2000 nM.
The figure for `Cc1cccc(C(Cc2cc(-c3ccc4ccccc4c3)n(-c3cccc[n+]3[O-])n2)C(=O)O)c1` (stereo not drawn) [Example 105] is 316 nM.

In general, Ki refers to the equilibrium dissociation constant of an inhibitor or competing ligand from its target.

The record behind these values is patent US20050020565A1, “CCK-1 receptor modulators” (priority 2003, published 2005).
